Experiments:
[1] = test system: colon cancer cell line RKO; assay: Cell cycle analysis by PI flow cytometry; format: cell-based, human
Protocol: The effects of Asperphenin B on the cell cycle of the colon cancer cell line RKO was confirmed by flow cytometry.
RKO cells (ATCC) were diluted in a medium containing 10% (v/v) FBS to become 1×10^5 cells/ml, and then, inoculated into a 60 mm culture dish. The inoculated cells were cultured for about 24 hours at a temperature of 37° C. under the condition of 5% CO2. The cultured cells were washed with phosphate-buffered saline (PBS) once, and the medium was replaced by a fresh medium. Asperphenin B at the final concentration of 0.625 μM, 1.25 μM, 2.5 μM, 5 μM, or 10 μM was added to the cultured cells, and then, the cells were cultured at a temperature of 37° C. under condition of 5% CO2.
After a certain period of time, cells attached to the culture dish and cells not attached to the medium were collected. The collected cells was washed with PBS once, and then, 1 ml of cold 70% (v/v) ethanol. The cells were incubated at a temperature of 4° C. for about 12 hours to fix the cells. After removing 70% (v/v) ethanol, the fixed cells were washed with PBS once. 500 μl of RNase A (Sigma Aldrich) at a concentration of 50 μg/ml as added to the cells, and the cells were incubated at room temperature for about 30 minutes. Propidium iodide (PI) at a final concentration of 50 μg/ml was added to the cells, and then, the cells were incubated at room temperature for about 30 minutes in a condition where reactants were in the shaded state. The cells stained with PI were subjected to analysis of cell cycle by using a BD FACSCalibur flow cytrometer (manufactured by BD Biosciences). Based on the flow cytometry results, cell ratios at the sub-G1, G0/G1, S, and G2/M phases were calculated. Here, as a negative control, cells to which Asperphenin B was not added was used.
When the RKO cells were incubated for 48 hours in the presence of Asperphenin B, cell ratios (%) dependent on the concentration of Asperphenin B are shown in FIG. 3A and Table 5. When the RKO cells were incubated in the presence of Asperphenin B at the concentrations of 2.5 μM and 5 μM, cell ratios (%) dependent on the incubation time are shown in FIGS. 3B and 3C, and Table 6.

[2] = test system: apoptosis-related proteins in RKO cells; assay: Immunoblotting of apoptosis-related proteins; format: cell-based, human
Protocol: As described in Example 2-3, cells were obtained in a way that Asperphenin B at the concentration of 0.625 μM, 1.25 μM, 2.5 μM, 5 μM, or 10 μM was added to the RKO cells, and then, cultured for 48 hours. However, cells were obtained in a way that Asperphenin B at the concentration of 5 μM was added to the RKO cells, and then, cultured for 0 to 48 hours. Then, proteins were obtained from the obtained cells.
Also, regarding the expression of apoptosis-related proteins, anti-ATM antibody (Cell Signaling Technology), anti-p-Chk (Thr68) antibody (Cell Signaling Technology), anti-Chk antibody (Cell Signaling Technology), anti-p-H2AX antibody (Cell Signaling Technology), anti-p53 antibody (Santa Cruz), anti-Bax antibody (Santa Cruz), anti-BID antibody (Cell Signaling Technology), anti-Caspase-8 antibody (Cell Signaling Technology), anti-Caspase-3 antibody (Cell Signaling Technology), anti-Caspase-9 antibody (Cell Signaling Technology), anti-cleaved PARP antibody (BD Biosciences), and anti-β-actin antibody (Santa Cruz) were used, to thereby perform immunoblotting.

[3] = Physicochemical characterization
[4] = RKO cells, 2.5 μM, 48 hours, Table 6
[5] = RKO cells, 5 μM, 48 hours, Table 6
[6] = RKO cells, 48 hours, 2.5 μM, Table 5
[7] = RKO cells, 48 hours, 5 μM, Table 5

Q: Which “Effect on cells in the G2/M phase” value ([1]; 2.5 μM or 5 μM, until 24 hours of treatment) does the source give for `CCCCCCCCC[C@@H](O)CC(=O)N[C@@H](CC(N)=O)C(=O)N[C@@H](CCC(N)=O)C(=O)N[C@H](CC(=O)c1cc(C)cc(O)c1C(=O)c1c(O)cccc1O)CC(C)C` [Asperphenin B] here?
A: cell cycle arrest

Q: And the “Effect after 48 hours of treatment” value ([1]; RKO cells, 2.5 μM or 5 μM, 48 hours)?
A: cell apoptosis was induced

Q: What about the “Cell ratio, G0/G1 phase” value ([1]; RKO cells, 2.5 μM, 6 hours) of the same compound?
A: 62.16%

Q: What about the “Cell ratio, G2/M phase” value ([1]; RKO cells, 2.5 μM, 6 hours) of the same compound?
A: 18.28%

Q: And the “Cell ratio, S phase” value ([1]; RKO cells, 2.5 μM, 6 hours)?
A: 13.82%

Q: What about the “Cell ratio, Sub-G1 phase” value ([1]; RKO cells, 2.5 μM, 6 hours) of the same compound?
A: 3.77%

Q: What about the “Cell ratio, G0/G1 phase” value ([1]; RKO cells, 2.5 μM, 12 hours) of the same compound?
A: 56.50%

Q: What about the “Cell ratio, G2/M phase” value ([1]; RKO cells, 2.5 μM, 12 hours) of the same compound?
A: 22.18%

Q: What about the “Cell ratio, S phase” value ([1]; RKO cells, 2.5 μM, 12 hours) of the same compound?
A: 15.09%

Q: And the “Cell ratio, Sub-G1 phase” value ([1]; RKO cells, 2.5 μM, 12 hours)?
A: 3.25%

Q: What about the “Cell ratio, G0/G1 phase” value ([1]; RKO cells, 2.5 μM, 24 hours) of the same compound?
A: 30.73%

Q: What about the “Cell ratio, G2/M phase” value ([1]; RKO cells, 2.5 μM, 24 hours) of the same compound?
A: 40.76%

Q: What about the “Cell ratio, S phase” value ([1]; RKO cells, 2.5 μM, 24 hours) of the same compound?
A: 17.38%

Q: What about the “Cell ratio, Sub-G1 phase” value ([1]; RKO cells, 2.5 μM, 24 hours) of the same compound?
A: 5.03%

Q: And the “Cell ratio, G0/G1 phase” value [1, 4]?
A: 17.80%

Q: And the “Cell ratio, G2/M phase” value [1, 4]?
A: 39.31%

Q: And the “Cell ratio, S phase” value [1, 4]?
A: 6.55%

Q: What about the “Cell ratio, Sub-G1 phase” value [1, 4] of the same compound?
A: 33.38%

Q: What about the “Cell ratio, G0/G1 phase” value ([1]; RKO cells, 5 μM, 6 hours) of the same compound?
A: 60.66%

Q: And the “Cell ratio, G2/M phase” value ([1]; RKO cells, 5 μM, 6 hours)?
A: 20.21%

Q: And the “Cell ratio, S phase” value ([1]; RKO cells, 5 μM, 6 hours)?
A: 13.48%

Q: And the “Cell ratio, Sub-G1 phase” value ([1]; RKO cells, 5 μM, 6 hours)?
A: 3.19%

Q: And the “Cell ratio, G0/G1 phase” value ([1]; RKO cells, 5 μM, 12 hours)?
A: 57.60%

Q: What about the “Cell ratio, G2/M phase” value ([1]; RKO cells, 5 μM, 12 hours) of the same compound?
A: 20.93%

Q: What about the “Cell ratio, S phase” value ([1]; RKO cells, 5 μM, 12 hours) of the same compound?
A: 14.63%

Q: What about the “Cell ratio, Sub-G1 phase” value ([1]; RKO cells, 5 μM, 12 hours) of the same compound?
A: 3.80%

Q: And the “Cell ratio, G0/G1 phase” value ([1]; RKO cells, 5 μM, 24 hours)?
A: 28.35%

Q: And the “Cell ratio, G2/M phase” value ([1]; RKO cells, 5 μM, 24 hours)?
A: 48.88%

Q: And the “Cell ratio, S phase” value ([1]; RKO cells, 5 μM, 24 hours)?
A: 14.08%

Q: What about the “Cell ratio, Sub-G1 phase” value ([1]; RKO cells, 5 μM, 24 hours) of the same compound?
A: 4.86%

Q: And the “Cell ratio, G0/G1 phase” value [1, 5]?
A: 20.53%

Q: And the “Cell ratio, G2/M phase” value [1, 5]?
A: 23.37%

Q: And the “Cell ratio, S phase” value [1, 5]?
A: 5.90%

Q: And the “Cell ratio, Sub-G1 phase” value [1, 5]?
A: 48.23%

Q: And the “Cell ratio, G0/G1 phase” value ([1]; RKO cells, 48 hours, 0.625 μM)?
A: 52.49%

Q: And the “Cell ratio, G2/m phase” value ([1]; RKO cells, 48 hours, 0.625 μM)?
A: 29.56%

Q: What about the “Cell ratio, S phase” value ([1]; RKO cells, 48 hours, 0.625 μM) of the same compound?
A: 8.11%

Q: And the “Cell ratio, Sub-G1 phase” value ([1]; RKO cells, 48 hours, 0.625 μM)?
A: 7.14%

Q: And the “Cell ratio, G0/G1 phase” value ([1]; RKO cells, 48 hours, 1.25 μM)?
A: 23.02%

Q: And the “Cell ratio, G2/m phase” value ([1]; RKO cells, 48 hours, 1.25 μM)?
A: 43.94%

Q: And the “Cell ratio, S phase” value ([1]; RKO cells, 48 hours, 1.25 μM)?
A: 6.39%

Q: And the “Cell ratio, Sub-G1 phase” value ([1]; RKO cells, 48 hours, 1.25 μM)?
A: 24.18%

Q: What about the “Cell ratio, G0/G1 phase” value [1, 6] of the same compound?
A: 17.99%

Q: And the “Cell ratio, G2/m phase” value [1, 6]?
A: 34.58%

Q: What about the “Cell ratio, S phase” value [1, 6] of the same compound?
A: 6.63%

Q: And the “Cell ratio, Sub-G1 phase” value [1, 6]?
A: 38.60%

Q: And the “Cell ratio, G0/G1 phase” value [1, 7]?
A: 17.59%

Q: And the “Cell ratio, G2/m phase” value [1, 7]?
A: 15.97%

Q: And the “Cell ratio, S phase” value [1, 7]?
A: 5.29%

Q: And the “Cell ratio, Sub-G1 phase” value [1, 7]?
A: 59.90%

Q: What about the “Cell ratio, G0/G1 phase” value ([1]; RKO cells, 48 hours, 10 μM) of the same compound?
A: 17.07%

Q: What about the “Cell ratio, G2/m phase” value ([1]; RKO cells, 48 hours, 10 μM) of the same compound?
A: 8.92%

Q: What about the “Cell ratio, S phase” value ([1]; RKO cells, 48 hours, 10 μM) of the same compound?
A: 5.46%

Q: And the “Cell ratio, Sub-G1 phase” value ([1]; RKO cells, 48 hours, 10 μM)?
A: 67.82%

Q: What about the “Expression of p53 and Bax” value ([2]; 5 μM, 0 to 48 hours, FIG. 6B) of the same compound?
A: increased in a time-dependent manner

Q: What about the “Expression of p-Chk2 (Thr68), p-H2AX (Ser139), cleaved caspase-8, cleaved caspase-9, cleaved caspase-3, and PARP” value ([2]; 5 μM, 48 hours, FIG. 6B) of the same compound?
A: increased

Q: And the “Expression of ATM protein” value ([2]; 48 hours, 0.625-10 μM, FIG. 6A)?
A: increased in a concentration-dependent manner

Q: What about the “Expression of p53 protein” value ([2]; 48 hours, 0.625-10 μM, FIG. 6A) of the same compound?
A: increased in a concentration-dependent manner

Q: What about the “Chk2 and H2AX, sub-regulatory factors of ATM” value ([2]; 48 hours, FIG. 6A) of the same compound?
A: phosphorylated to be activated

Q: And the “Cleavage of Bid, caspase-8, caspase-9, caspase-3 and PARP” value ([2]; 48 hours, FIG. 6A)?
A: induced

Q: What about the “Expression of Bax” value ([2]; 48 hours, FIG. 6A) of the same compound?
A: increased expression

Q: And the “Solubility in organic solvent” value [3]?
A: well dissolved in a moderate organic solvent, such as methanol and acetone

Q: What about the Stability [3] of the same compound?
A: stable at room temperature

— patent US10759831B2, “Peptide compound, production method therefor, and use thereof” (iNtRON Biotechnology, Inc., priority 2014, dated 2020)
